According to patent publication US20250043360A1, “USE OF RPN11 MARKER IN DETECTION OF MYELOMA AND DISEASE RISK THEREOF, PROGNOSIS ANALYSIS AND TREATMENT MEDICAMENT” (Peking University, priority 2022, published 2025):

Assays:
Type in all cases: cell-based
LP-1 cells [1] = assay: CCK cell counting assay, RPN11 inhibitor combined with Lenalidomide or Dexamethasone; conditions: vs either agent alone, range of concentrations, FIG. 8
Experimental: (§1) CCK kit was used to detect cell proliferation of LP-1 cells stably overexpressing and knocking down RPN11: after the transfected cells were cultured for 48 h, the cells were digested with 0.25% trypsin and counted, inoculated in a 96-well plate at a concentration of 1×10^4 cells/mL, 100 μL in each well; 10 μL of CCK8 reagent was added to each well of the 96-well plate in the dark, the culture plate was shaken for 3 min, then placed into the incubator to continue culturing for 2 h, and the culture plate was taken out and the OD value was measured at a wavelength of 450 nm with a microplate reader.
LP-1 cells were treated with RPN11 inhibitors (OPA or Capzimin) or/and Lenalidomide or Dexamethasone (within a range of concentrations), and the cell proliferation ability was detected using CCK cell counting assay.

[2] = tested on: bortezomib-resistant LP-1 cells (LP-1BR); assay: CCK cell counting experiment, bortezomib-resistant LP-1 cells; conditions: LP-1BR cells, vs control group (Vehicle); OPA 10 μM, Capzimin 2 μM; FIG. 7A
Experimental: as §1
(§2) Wild-type or bortezomib-resistant LP-1 cells (LP-1 or LP-1BR) were treated with Vehicle or RPN11 inhibitor (OPA or Capzimin) separately, and the proliferation and apoptosis of LP-1BR cells were detected through CCK cell counting experiment and cell apoptosis experiment.

LP-1 cells [3] = assay: CCK cell counting experiment, wild-type LP-1 cells; conditions: vs control group (Vehicle), OPA 10 μM, Capzimin 2 μM, FIG. 7A
Experimental: as §1, §2

LP-1 cells [4] = assay: Cell apoptosis experiment, wild-type LP-1 cells; conditions: vs control group (Vehicle), OPA 10 μM, Capzimin 2 μM, FIG. 7B
Experimental: (§3) Apoptosis was detected in LP-1 cells stably overexpressing and knocking down RPN11. The cells were treated with camptothecin (CPT) for 24 h, washed with PBS, double-stained with Annexin V-APC/propidium iodide (PI) for 15 min at room temperature in the dark, and cell collection and analysis were conducted on each sample using a FACS Calibur flow cytometer.
as §2

[5] = tested on: bortezomib-resistant LP-1 cells (LP-1BR); assay: Cell apoptosis experiment, bortezomib-resistant LP-1 cells; conditions: LP-1BR cells, vs control group (Vehicle); OPA 10 μM, Capzimin 2 μM; FIG. 7B
Experimental: as §3, §2

SMILES: c1cnc2c(c1)ccc1cccnc12 [OPA]
- combined treatment effect on inhibiting the growth and proliferation (LP-1 cells [1]; combined with dexamethasone): synergistic effect
- combined treatment effect on inhibiting the growth and proliferation (LP-1 cells [1]; combined with lenalidomide): synergistic effect
- proliferation ability [2]: significantly reduced
- proliferation ability (LP-1 cells [3]): significantly reduced
- number of apoptotic cells (LP-1 cells [4]): significantly increased
- number of apoptotic cells [5]: significantly increased
